Data on 19 compounds can be found in ChEMBL document CHEMBL1146013, “Amino substituted analogs of 1-phenyl-3-phenylimino-2-indolones with potent galanin Gal3 receptor binding affinity and improved solubility” (Bioorg Med Chem Lett, 2006).

Data set [1] can be described thus: Aqueous solubility at pH 7.4. The data set is classed as physicochemical.
For the next data set, the target named is D(1B) dopamine receptor (Homo sapiens, UniProt P21918). Kind of data set: Binding affinity to human dopamine D5 receptor.
Another data set has as its target T1, Galanin receptor type 3 (Homo sapiens, UniProt O60755).
T1 sequence (O60755 whole entry): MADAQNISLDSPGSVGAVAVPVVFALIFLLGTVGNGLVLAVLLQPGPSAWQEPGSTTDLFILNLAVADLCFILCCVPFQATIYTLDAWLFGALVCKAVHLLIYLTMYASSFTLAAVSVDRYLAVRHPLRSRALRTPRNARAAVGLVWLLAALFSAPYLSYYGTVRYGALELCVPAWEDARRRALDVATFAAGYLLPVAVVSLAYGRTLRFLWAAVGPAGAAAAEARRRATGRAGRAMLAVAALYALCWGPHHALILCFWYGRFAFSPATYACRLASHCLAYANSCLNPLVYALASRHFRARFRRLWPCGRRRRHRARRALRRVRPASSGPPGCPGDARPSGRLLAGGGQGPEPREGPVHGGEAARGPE
In words: Displacement of [125I]galanin from human galanin Gal3 receptor.

In data set [2] the target is T2, Alpha-1A adrenergic receptor (Homo sapiens, UniProt P35348).
T2 sequence (P35348 whole entry): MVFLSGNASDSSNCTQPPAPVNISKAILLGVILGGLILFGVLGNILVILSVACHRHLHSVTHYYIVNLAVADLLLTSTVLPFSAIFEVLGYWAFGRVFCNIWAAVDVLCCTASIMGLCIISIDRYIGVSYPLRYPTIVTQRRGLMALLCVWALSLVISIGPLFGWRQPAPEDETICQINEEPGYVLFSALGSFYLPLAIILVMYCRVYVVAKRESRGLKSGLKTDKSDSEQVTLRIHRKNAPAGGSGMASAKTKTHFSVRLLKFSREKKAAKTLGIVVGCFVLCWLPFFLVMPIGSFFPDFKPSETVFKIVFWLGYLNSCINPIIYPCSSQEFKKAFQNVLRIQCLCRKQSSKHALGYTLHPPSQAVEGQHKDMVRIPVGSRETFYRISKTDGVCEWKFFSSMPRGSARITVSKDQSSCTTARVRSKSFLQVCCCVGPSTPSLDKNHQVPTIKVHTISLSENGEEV
Kind of data set: Binding affinity to human adrenergic alpha-1A receptor.

Values after ≈ are worked out from the molar mass of the structure shown. A value given as a limit tells only on which side of the number the result lay.

Sequence of D(1B) dopamine receptor (P21918 whole entry): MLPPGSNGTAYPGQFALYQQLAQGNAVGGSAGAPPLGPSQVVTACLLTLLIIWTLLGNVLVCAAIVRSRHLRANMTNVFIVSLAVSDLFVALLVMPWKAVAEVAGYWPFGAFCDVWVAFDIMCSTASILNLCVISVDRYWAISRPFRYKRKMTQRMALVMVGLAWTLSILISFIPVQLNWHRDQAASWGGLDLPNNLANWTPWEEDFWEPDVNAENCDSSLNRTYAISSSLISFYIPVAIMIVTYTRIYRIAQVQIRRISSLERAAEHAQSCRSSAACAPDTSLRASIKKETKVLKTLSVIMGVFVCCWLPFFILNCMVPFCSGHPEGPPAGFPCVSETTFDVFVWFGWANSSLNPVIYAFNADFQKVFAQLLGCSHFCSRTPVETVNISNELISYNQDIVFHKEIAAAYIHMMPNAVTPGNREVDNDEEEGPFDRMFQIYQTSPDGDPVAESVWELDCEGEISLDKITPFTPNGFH

The compound `CCN(CC)CCCOc1cccc(N2C(=O)/C(=N/c3cccc(C(F)(F)F)c3)c3ccccc32)c1` gave a solubility in data set [1] of 44 µg/mL (≈ 88.8 µM). The Ki came to 411 nM on D(1B) dopamine receptor and 21 nM at Galanin receptor type 3. On to `CCN(CC)CCOc1ccccc1N1C(=O)/C(=N/c2cccc(C(F)(F)F)c2)c2ccccc21`, for which the affinity on Galanin receptor type 3 corresponds to a Ki of 1000 nM. In the case of `CN(C)CCCOc1cccc(N2C(=O)/C(=N/c3cccc(C(F)(F)F)c3)c3ccccc32)c1`, at Galanin receptor type 3, the Ki came to 29 nM. Compound `O=C1/C(=N/c2cccc(C(F)(F)F)c2)c2ccccc2N1c1cccc(OCCCN2CCCC2)c1` had a Ki on Galanin receptor type 3 of 49 nM. `CCN(CC)CCCOc1ccc(N2C(=O)/C(=N/c3cccc(C(F)(F)F)c3)c3ccccc32)cc1` displayed a solubility in data set [1] of 35 µg/mL (≈ 70.6 µM). This compound registered a Ki at Galanin receptor type 3 of 34 nM. `CCN(CC)CCOc1ccc(N2C(=O)/C(=N/c3cccc(C(F)(F)F)c3)c3ccccc32)cc1` displayed a Ki at Galanin receptor type 3 of 78 nM. Take `O=C1/C(=N/c2cccc(C(F)(F)F)c2)c2ccccc2N1c1ccccc1`: the solubility in data set [1] is < 1 µg/mL. This compound also came in with a Ki on Galanin receptor type 3 of 17 nM. In the case of `O=C1/C(=N/c2cccc(C(F)(F)F)c2)c2ccccc2N1c1ccccc1OCCN1CCCC1`, the Ki on Galanin receptor type 3 worked out at 790 nM. This lies in the sub-micromolar range.

`CCN(CC)CCCCOc1cccc(N2C(=O)/C(=N/c3cccc(C(F)(F)F)c3)c3ccccc32)c1`: in data set [1], the solubility came to 5 µg/mL (≈ 9.81 µM). The same compound gave a Ki at Galanin receptor type 3 of 45 nM. `CCN(CC)C[C@@H](O)COc1cccc(N2C(=O)/C(=N/c3cccc(C(F)(F)F)c3)c3ccccc32)c1` yielded a Ki at Galanin receptor type 3 of 290 nM. In data set [1], `O=C1/C(=N/c2cccc(C(F)(F)F)c2)c2ccccc2N1c1cccc(OCCN2CCCCC2)c1` had a solubility of 7 µg/mL (≈ 14.2 µM). At Galanin receptor type 3, this compound came in with a Ki of 8 nM. The like results for `CCN(CC)C[C@H](O)COc1cccc(N2C(=O)/C(=N/c3cccc(C(F)(F)F)c3)c3ccccc32)c1` were, in that order, 606 µg/mL (≈ 1180 µM) and 27 nM.

For the compound `CCN(CC)COc1cccc(N2C(=O)/C(=N/c3cccc(C(F)(F)F)c3)c3ccccc32)c1`, the solubility in data set [1] amounted to 48 µg/mL (≈ 103 µM). The affinity at Galanin receptor type 3 corresponds to a Ki of 38 nM. Regarding `CN(C)CCOc1cccc(N2C(=O)/C(=N/c3cccc(C(F)(F)F)c3)c3ccccc32)c1`, the affinity on Galanin receptor type 3 corresponds to a Ki of 26 nM.

Turning to `O=C1/C(=N/c2cccc(C(F)(F)F)c2)c2ccccc2N1c1cccc(OCCN2CCCC2)c1`, the Ki in data set [2] stood at 78 nM; on D(1B) dopamine receptor, 939 nM; at Galanin receptor type 3, 5 nM. In data set [1], the concentration in solution (solubility) came to 48 µg/mL (≈ 100 µM). Turning to `CN(C)CCOc1ccc(N2C(=O)/C(=N/c3cccc(C(F)(F)F)c3)c3ccccc32)cc1`, on Galanin receptor type 3, the affinity corresponds to a Ki of 89 nM. Still for that read-out and setting: the result for `CCN(CC)CCOc1cccc(N2C(=O)/C(=N/c3cccc(C(F)(F)F)c3)c3ccccc32)c1` reads 87 nM; that for `CCN(CC)CC(O)COc1cccc(N2C(=O)/C(=N/c3cccc(C(F)(F)F)c3)c3ccccc32)c1` (racemic), 15 nM. On the same count and under the same terms, the result for `CCN(CC)CCCCOc1ccc(N2C(=O)/C(=N/c3cccc(C(F)(F)F)c3)c3ccccc32)cc1` reads 70 nM.
